We go through 4 compounds from patent publication US8748480B2, “Methods for treating opioid tolerance” (priority 2005, dated 2014).

The assay has as its target T1, Gβγ (protein interaction site of Gβ) (Rattus norvegicus, UniProt P54311).
T1 construct: made in house; host or cells: Sf9 insect cells (baculovirus), co-expressed with BirA and (His)6-Gαi1
Nature of the assay: Phage ELISA: small molecules competing with SIGK-phage binding to immobilized biotinylated Gβγ. As to conditions: read-out: IC50. Here is the method:
Exemplary compounds of the present invention were initially selected from a computational screen to identify ligands that bind to the novel protein interaction site of Gβ. The computational screen involved using SYBYL molecular modeling software to model the protein interaction site of Gβ as determined in the X-ray structure disclosed herein. The computational docking screen was performed with the National Cancer Institute 1900 compound library wherein the compounds were tested for docking to the protein interaction site of Gβ using FLEXX™ (Tripos, Inc., St. Louis, Mo.) for docking and CSCORE™ (Tripos, Inc.) to evaluate the energetics and fitness of the docked structure. Algorithm-dependent lists of compounds, predicted to interact with the protein interaction site of Gβ and the structural model of the interaction, were generated. Selected compounds were subsequently analyzed in the phage ELISA binding assay disclosed herein to assess whether these compounds could bind to the protein interaction site of Gβ and interfere with protein interactions at this surface.
Wild-type Gβ1 and Gβ1 mutants were made in the baculovirus vector PDW464 which encodes a biotinylation site at a lysine upstream of the amino terminus of Gβ1 (Goubaeva, et al. (2003) supra). Mutants were generated by overlap extension PCR using standard protocols. The wild-type and mutant Gβ1 constructs consisted of a 20 amino acid biotin acceptor peptide (BAP) sequence fused in-frame with the amino-terminus of rat Gβ1 subunit. When coexpressed with biotin holoenzyme synthetase (BirA) in Sf9 cells, the Gβ1 subunit becomes covalently biotinylated in vivo at the Specific lysine acceptor residue in the BAP.
Phage ELISA assays used to assess peptide binding to wild-type and mutant b-βγ were performed according to standard methods (Smrcka and Scott (2002) Methods Enzymol. 344:557-76). Briefly, 1 μg streptavidin was immobilized in the well of a […] overnight at 4° C. The wells were blocked with 100 μL of 2% bovine serum albumin (BSA) in Tris-buffered saline (TBS) for 1 hour at 4° C. followed by three washes of 1×TBS/0.5% TWEEN®. […] The wells were washed, followed by the addition of 1×10^6 to 1×10^10 phage particles and incubated at 4° C. for 3 hours. The wells were then washed six times with TBS/0.5% TWEEN® followed by addition of 40 μL of 1:5000 dilution of anti-M13 antibody (Pharmacia, Uppsala, Sweden) and incubated at room temperature for 1 hour. The wells were washed, followed by the addition of 40 μL of (2,2′-Azino-bis(3-ethylbenzthiazoline)-6-sulfonic acid (ABTS) and the colorimetric reaction was monitored at 405 nm. Non-specific binding was subtracted for each reading.
A phage ELISA assay was used to determine whether small molecules identified in the computational screen could interact with the Gβγ protein interaction surface. […] The screen was based on a reduction in the optical density (OD) of wells containing Gβγ subunits and phage. […] Three background wells contained no βγ subunits.
As disclosed herein, biotinylated Gβγ subunits were immobilized on the surface of a 96-well plate coated with streptavidin, phage displaying Gβγ-binding peptides were subsequently added and binding in the presence and absence of test compounds detected with an anti-phage antibody.
Background: In an ELISA, binding on a coated surface is turned into a signal by an enzyme label.

By IC50 is commonly meant the concentration that inhibits the measured activity by half. For `O=C1c2ccccc2C(=O)c2c(Nc3cc4c5c(ccc6c7ccc8c9c(cc(Nc%10cccc%11c%10C(=O)c%10ccccc%10C%11=O)c(c3c56)c97)-c3ccccc3C8=O)C(=O)c3ccccc3-4)cccc21` [NSC23128], the 50% inhibitory concentration (IC50) amounted to 16 µM.

As for `CCc1cc2c(c3ccc(C(=O)CBr)cc13)CCCC2` [NSC30820], the half-maximal inhibitory concentration (IC50) came to 0.1 µM.

In the case of `Nc1c(S(=O)(=O)O)cc(Nc2cccc(S(N)(=O)=O)c2)c2c1C(=O)c1ccccc1C2=O` [NSC117079], the IC50 is 43 µM.

Take `Nc1ccc(-c2ccc(Nc3cc(S(=O)(=O)O)c(N)c4c3C(=O)c3ccccc3C4=O)cc2)c(S(=O)(=O)O)c1` [NSC125910]: the IC50 worked out at 68 µM.
